Read-outs that look alike come from different tables or passages of the source.
What was measured:
[1] = test system: D. melanogaster BII cell line (expresses the ecdysteroid receptor complex EcR-USP); experiment: Drosophila melanogaster BII cell line bioassay (turbidometric; agonist and antagonist versions); settings: for EC50: read-out: EC50 (M), BII bioassay results
[2] = target: BmEcR (GAL4-EcR DEF with VP16-RXR-USP chimera) (Bombyx mori, UniProt P49881); experiment: Two-hybrid gene switch assay, luciferase reporter, BmEcR, mouse NIH3T3 cells; assay type: cell-based; settings: read-out: EC50
[3] = target: wild-type Drosophila melanogaster EcR (DmEcR; GAL4-EcR DEF with VP16-RXR-USP chimera) (Drosophila melanogaster, UniProt P34021); experiment: Two-hybrid gene switch assay, luciferase reporter, wild-type DmEcR, mouse NIH3T3 cells; assay type: cell-based
[4] = target: T1, TmEcR (GAL4-EcR DEF with VP16-RXR partner) (Tenebrio molitor, UniProt O02035); experiment: Two-hybrid gene switch assay, luciferase reporter, TmEcR, mouse NIH3T3 cells
T1 sequence (O02035 194-491): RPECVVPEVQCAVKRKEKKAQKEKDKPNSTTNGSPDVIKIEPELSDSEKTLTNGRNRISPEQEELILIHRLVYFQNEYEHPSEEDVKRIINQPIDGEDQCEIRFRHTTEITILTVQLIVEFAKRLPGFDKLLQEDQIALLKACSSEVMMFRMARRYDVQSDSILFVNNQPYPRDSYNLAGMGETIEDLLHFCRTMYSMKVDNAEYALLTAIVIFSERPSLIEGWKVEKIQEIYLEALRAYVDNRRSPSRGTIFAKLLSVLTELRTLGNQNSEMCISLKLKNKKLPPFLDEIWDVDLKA
T1 sequence (P28704 1-520 partner): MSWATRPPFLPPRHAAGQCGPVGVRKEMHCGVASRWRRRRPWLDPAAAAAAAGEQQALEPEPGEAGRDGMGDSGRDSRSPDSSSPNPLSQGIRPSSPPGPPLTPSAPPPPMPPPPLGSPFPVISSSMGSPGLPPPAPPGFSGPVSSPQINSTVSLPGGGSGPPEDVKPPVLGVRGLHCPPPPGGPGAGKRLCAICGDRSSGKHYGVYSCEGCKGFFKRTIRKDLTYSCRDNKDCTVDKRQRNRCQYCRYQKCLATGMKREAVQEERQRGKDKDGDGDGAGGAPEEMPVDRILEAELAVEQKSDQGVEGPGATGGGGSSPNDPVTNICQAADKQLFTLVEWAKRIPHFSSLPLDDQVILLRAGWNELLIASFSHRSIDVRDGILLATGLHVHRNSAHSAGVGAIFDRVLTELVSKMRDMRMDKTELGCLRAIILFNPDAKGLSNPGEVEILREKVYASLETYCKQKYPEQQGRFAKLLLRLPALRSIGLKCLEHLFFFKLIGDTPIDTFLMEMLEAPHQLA

[5] = test system: NcEcR (GAL4-EcR DEF with VP16-RXR partner); experiment: Two-hybrid gene switch assay, luciferase reporter, NcEcR, mouse NIH3T3 cells; settings: FIG. 16, GAL4-EcR (DEF)
[6] = target: T2, BaEcR (GAL4-EcR DEF with VP16-RXR-USP chimera) (Bemisia tabaci, UniProt A0A6M3RDR8); experiment: Two-hybrid gene switch assay, luciferase reporter, BaEcR, mouse NIH3T3 cells
T2 sequence (A0A6M3RDR8 115-530): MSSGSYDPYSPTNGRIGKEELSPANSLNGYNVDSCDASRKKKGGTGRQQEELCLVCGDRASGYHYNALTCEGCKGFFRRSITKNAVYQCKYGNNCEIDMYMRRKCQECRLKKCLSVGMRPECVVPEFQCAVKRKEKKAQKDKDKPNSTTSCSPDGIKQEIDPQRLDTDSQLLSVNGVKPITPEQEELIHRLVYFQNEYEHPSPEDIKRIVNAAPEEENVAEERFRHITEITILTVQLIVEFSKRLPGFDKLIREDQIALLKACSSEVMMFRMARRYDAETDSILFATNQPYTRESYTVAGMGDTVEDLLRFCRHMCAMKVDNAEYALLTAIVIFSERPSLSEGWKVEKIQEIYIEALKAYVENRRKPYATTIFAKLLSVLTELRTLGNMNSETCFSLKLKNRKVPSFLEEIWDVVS
T2 sequence (P28702 1-533 partner): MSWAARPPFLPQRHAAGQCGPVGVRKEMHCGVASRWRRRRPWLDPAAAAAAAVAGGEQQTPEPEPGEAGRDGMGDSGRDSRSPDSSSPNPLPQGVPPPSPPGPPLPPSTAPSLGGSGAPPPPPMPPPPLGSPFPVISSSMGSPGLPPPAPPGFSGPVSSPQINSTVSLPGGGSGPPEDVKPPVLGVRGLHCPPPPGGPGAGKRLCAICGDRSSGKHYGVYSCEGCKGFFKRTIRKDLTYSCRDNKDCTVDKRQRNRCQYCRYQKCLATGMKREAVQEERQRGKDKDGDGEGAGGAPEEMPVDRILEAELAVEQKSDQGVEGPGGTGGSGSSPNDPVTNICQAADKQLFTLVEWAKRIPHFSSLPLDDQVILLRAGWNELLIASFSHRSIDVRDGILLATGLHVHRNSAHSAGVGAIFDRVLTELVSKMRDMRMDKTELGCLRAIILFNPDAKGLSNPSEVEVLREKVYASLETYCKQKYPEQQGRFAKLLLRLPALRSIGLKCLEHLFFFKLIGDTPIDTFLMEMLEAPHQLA

[7] = target: T3, AmaEcR (GAL4-EcR DEF with VP16-RXR-USP chimera) (Amblyomma americanum, UniProt O44338); experiment: Two-hybrid gene switch assay, luciferase reporter, AmaEcR, mouse NIH3T3 cells
T3 sequence (O44338 255-570): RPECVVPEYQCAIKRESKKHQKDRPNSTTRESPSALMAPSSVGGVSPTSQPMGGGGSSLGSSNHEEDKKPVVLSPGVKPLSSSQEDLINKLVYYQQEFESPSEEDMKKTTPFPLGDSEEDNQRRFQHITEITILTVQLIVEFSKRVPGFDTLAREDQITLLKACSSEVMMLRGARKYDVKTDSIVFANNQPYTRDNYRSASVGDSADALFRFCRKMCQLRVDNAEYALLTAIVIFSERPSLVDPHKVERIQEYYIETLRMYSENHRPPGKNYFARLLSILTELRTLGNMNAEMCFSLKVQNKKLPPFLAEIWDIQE
T3 sequence (P28702 1-533 partner): T2 sequence (P28702 1-533 partner)

[8] = target: T4, MsEcR (GAL4-EcR DEF with VP16-RXR-USP chimera) (Manduca sexta, UniProt P49883); experiment: Two-hybrid gene switch assay, luciferase reporter, MsEcR, mouse NIH3T3 cells
T4 sequence (P49883 1-556): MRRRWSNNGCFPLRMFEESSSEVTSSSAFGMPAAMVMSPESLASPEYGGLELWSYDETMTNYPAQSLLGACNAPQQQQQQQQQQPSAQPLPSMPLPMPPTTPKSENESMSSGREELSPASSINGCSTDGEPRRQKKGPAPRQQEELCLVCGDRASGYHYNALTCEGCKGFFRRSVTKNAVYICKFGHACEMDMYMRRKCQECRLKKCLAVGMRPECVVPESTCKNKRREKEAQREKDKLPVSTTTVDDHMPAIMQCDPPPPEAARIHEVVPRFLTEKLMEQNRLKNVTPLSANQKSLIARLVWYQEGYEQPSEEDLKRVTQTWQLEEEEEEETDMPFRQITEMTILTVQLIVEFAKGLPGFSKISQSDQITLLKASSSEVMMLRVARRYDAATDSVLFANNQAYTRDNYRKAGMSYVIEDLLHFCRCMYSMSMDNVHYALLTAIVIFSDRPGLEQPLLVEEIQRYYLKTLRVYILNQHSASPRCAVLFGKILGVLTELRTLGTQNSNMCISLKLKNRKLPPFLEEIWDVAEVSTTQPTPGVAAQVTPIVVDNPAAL
T4 sequence (P28702 1-533 partner): T2 sequence (P28702 1-533 partner)

[9] = target: wild-type Aedes aegypti EcR (AaEcR; GAL4-EcR DEF with VP16-RXR-USP chimera) (Aedes aegypti, UniProt P49880); experiment: Two-hybrid gene switch assay, luciferase reporter, wild-type AaEcR, mouse NIH3T3 cells; assay type: cell-based; settings: read-out: EC50
[10] = D. melanogaster BII cell line, turbidometric
[11] = EC50, FIG. 14A/14B, GAL4-EcR(DEF) with VP16-RXR-USP chimera
[12] = EC50, FIG. 16, GAL4-EcR (DEF) / VP16-RXR-USP chimera

Chain of wild-type Aedes aegypti EcR (AaEcR; GAL4-EcR DEF with VP16-RXR-USP chimera) (P49880 with tags, fused parts or gaps limits assumed, change not shown): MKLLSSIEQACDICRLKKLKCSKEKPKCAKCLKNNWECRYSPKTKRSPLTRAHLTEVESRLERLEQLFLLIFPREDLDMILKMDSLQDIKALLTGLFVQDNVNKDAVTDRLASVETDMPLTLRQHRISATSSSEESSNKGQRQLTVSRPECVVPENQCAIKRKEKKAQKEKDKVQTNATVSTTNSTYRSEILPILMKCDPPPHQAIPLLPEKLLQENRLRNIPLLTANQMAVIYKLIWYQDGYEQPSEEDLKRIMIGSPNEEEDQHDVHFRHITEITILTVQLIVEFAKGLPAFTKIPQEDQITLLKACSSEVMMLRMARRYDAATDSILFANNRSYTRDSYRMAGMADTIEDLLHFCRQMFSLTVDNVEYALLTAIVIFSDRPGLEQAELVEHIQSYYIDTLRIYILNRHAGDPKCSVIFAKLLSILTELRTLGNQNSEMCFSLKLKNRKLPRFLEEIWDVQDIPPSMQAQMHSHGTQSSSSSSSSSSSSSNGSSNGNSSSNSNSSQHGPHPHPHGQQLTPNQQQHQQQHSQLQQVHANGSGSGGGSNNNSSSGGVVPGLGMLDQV
Chain of wild-type Drosophila melanogaster EcR (DmEcR; GAL4-EcR DEF with VP16-RXR-USP chimera) (P34021 with tags, fused parts or gaps limits assumed): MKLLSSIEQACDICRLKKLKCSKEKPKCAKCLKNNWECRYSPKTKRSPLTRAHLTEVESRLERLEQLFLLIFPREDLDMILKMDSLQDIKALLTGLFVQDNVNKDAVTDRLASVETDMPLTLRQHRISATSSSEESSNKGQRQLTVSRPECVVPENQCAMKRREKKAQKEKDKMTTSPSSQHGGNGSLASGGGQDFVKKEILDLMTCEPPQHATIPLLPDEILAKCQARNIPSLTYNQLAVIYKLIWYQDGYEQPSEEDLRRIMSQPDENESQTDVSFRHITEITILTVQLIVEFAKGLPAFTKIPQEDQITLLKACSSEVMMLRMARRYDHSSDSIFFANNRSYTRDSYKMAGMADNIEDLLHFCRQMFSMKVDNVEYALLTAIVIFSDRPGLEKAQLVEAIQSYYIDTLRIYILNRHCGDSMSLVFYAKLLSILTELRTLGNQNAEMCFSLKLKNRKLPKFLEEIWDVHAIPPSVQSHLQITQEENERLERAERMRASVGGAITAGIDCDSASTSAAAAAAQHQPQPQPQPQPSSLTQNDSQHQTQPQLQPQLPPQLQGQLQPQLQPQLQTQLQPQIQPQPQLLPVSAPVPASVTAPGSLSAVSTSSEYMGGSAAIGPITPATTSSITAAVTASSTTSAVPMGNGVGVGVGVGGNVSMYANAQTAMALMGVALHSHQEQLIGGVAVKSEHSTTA
Chain of BmEcR (GAL4-EcR DEF with VP16-RXR-USP chimera) (P49881 other isoform, or with tags, fused parts or gaps, change not shown): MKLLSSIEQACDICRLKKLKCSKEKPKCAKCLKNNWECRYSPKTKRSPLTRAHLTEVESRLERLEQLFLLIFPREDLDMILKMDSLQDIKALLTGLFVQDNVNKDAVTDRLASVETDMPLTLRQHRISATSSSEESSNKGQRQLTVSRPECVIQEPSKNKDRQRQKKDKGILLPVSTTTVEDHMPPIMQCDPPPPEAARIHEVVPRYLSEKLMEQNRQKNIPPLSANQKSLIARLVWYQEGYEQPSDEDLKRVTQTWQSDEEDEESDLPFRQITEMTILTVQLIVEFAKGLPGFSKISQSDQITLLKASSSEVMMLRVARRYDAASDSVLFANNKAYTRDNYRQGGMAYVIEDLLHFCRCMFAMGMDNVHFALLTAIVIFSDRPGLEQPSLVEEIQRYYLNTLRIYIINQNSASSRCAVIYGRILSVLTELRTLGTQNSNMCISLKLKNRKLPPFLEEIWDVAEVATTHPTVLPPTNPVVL

Structure (SMILES)	EC50 [1, 10] [M]	EC50 ([1]; Drosophila melanogaster) [M]	other results
CO[C@H]1C[C@@]2(C)[C@@H](C[C@H]1O)C(=O)C=C1[C@@H]2CC[C@]2(C)[C@@H]([C@@](C)(O)C(O)CCC(C)(C)O)CC[C@@]12O (stereo partly drawn) [compound 1, 20-hydroxyecdysone, 2-methyl ether]	1.1e-06		
CO[C@@]12CCC([C@@](C)(O)[C@H](O)CCC(C)(C)O)C1(C)CCC1C2=CC(=O)C2C[C@@H](O)[C@@H](O)CC21C (stereo partly drawn) [compound 3, 20-hydroxyecdysone, 14-methyl ether]		3.2e-06	
CCCO[C@H](CCC(C)(C)O)[C@](C)(O)C1CC[C@@]2(O)C3=CC(=O)C4C[C@@H](O)[C@@H](O)CC4(C)C3CCC12C (stereo partly drawn) [compound 6, 20-hydroxyecdysone, 22-n-propyl ether]		8.3e-07	
C=CCO[C@H](CCC(C)(C)O)[C@](C)(O)C1CC[C@@]2(O)C3=CC(=O)C4C[C@@H](O)[C@@H](O)CC4(C)C3CCC12C (stereo partly drawn) [compound 7, 20-hydroxyecdysone, 22-allyl ether]		1.6e-07	
CCCCO[C@H](CCC(C)(C)O)[C@](C)(O)C1CC[C@@]2(O)C3=CC(=O)C4C[C@@H](O)[C@@H](O)CC4(C)C3CCC12C (stereo partly drawn) [compound 8, 20-hydroxyecdysone, 22-n-butyl ether]		1e-07	
CC(C)(O)CC[C@@H](OCc1ccccc1)[C@](C)(O)C1CC[C@@]2(O)C3=CC(=O)C4C[C@@H](O)[C@@H](O)CC4(C)C3CCC12C (stereo partly drawn) [compound 9, 20-hydroxyecdysone, 22-benzyl ether]		2.2e-08	BII potency relative to 20E [1]: does not decrease 20E potency very much
COC(C)(C)CC[C@@H](O)[C@](C)(O)[C@H]1CC[C@@]2(O)C3=CC(=O)[C@@H]4C[C@@H](O)[C@@H](O)C[C@]4(C)[C@H]3CC[C@]12C [compound 10, 20-hydroxyecdysone-25-methyl ether]	6e-08		
CO[C@H]1C[C@@]2(C)[C@@H](C[C@H]1O)C(=O)C=C1[C@@H]2CC[C@]2(C)[C@@H]([C@@](C)(O)[C@@H](CCC(C)(C)O)OC)CC[C@@]12O [compound 11, 20-hydroxyecdysone, 2,22-dimethyl ether]	9.3e-07		
CO[C@H](CCC(C)(C)O)[C@](C)(O)C1CC[C@@]2(OC)C3=CC(=O)C4C[C@@H](O)[C@@H](O)CC4(C)C3CCC12C (stereo partly drawn) [compound 13, 20-hydroxyecdysone, 14,22-dimethyl ether]		2.5e-06	
CO[C@H](CCC(C)(C)OC)[C@](C)(O)[C@H]1CC[C@@]2(O)C3=CC(=O)[C@@H]4C[C@@H](O)[C@@H](O)C[C@]4(C)[C@H]3CC[C@]12C [compound 14, 20-hydroxyecdysone, 22,25-dimethyl ether]	1.2e-07		
CO[C@H]1CC2(C)C(C[C@H]1OC)C(=O)C=C1C2CCC2(C)C([C@@](C)(O)[C@@H](CCC(C)(C)O)OC)CC[C@@]12OC (stereo partly drawn) [compound 15, 20-hydroxyecdysone, 2,3,14,22-tetramethyl ether]		9e-05	
CO[C@H]1C[C@@]2(C)[C@@H](C[C@H]1O)C(=O)C=C1[C@@H]2CC[C@]2(C)[C@@H]([C@@](C)(O)[C@H](O)CCC(C)C)CC[C@@]12O [compound 16, ponasterone A, 2-methyl ether]	4.3e-08		
CO[C@@]12CC[C@H]([C@@](C)(O)[C@H](O)CCC(C)C)[C@@]1(C)CC[C@H]1C2=CC(=O)[C@@H]2C[C@@H](O)[C@@H](O)C[C@@]21C [compound 17, ponasterone A, 14-methyl ether]	6e-08		
CO[C@H]1C[C@@]2(C)[C@@H](C[C@H]1O)C(=O)C=C1[C@@H]2CC[C@]2(C)[C@@H]([C@@](C)(O)[C@@H](CCC(C)C)OC)CC[C@@]12O [compound 19, ponasterone A, 2,22-dimethyl ether]	3e-08		
COC(CCC(C)C)[C@](C)(O)[C@H]1CC[C@@]2(O)C3=CC(=O)[C@@H]4C[C@@H](OC)[C@@H](O)C[C@]4(C)[C@H]3CC[C@]12C (stereo partly drawn) [compound 20, ponasterone A, 3,22-dimethyl ether]	1.2e-08		
CC(=O)C1CCC2(O)C3=CC(=O)C4CC(O)C(O)CC4(C)C3CCC12C (stereo not drawn) [poststerone]			EC50 [2]: > 33 µM; EC50 [3, 11]: > 33 µM; EC50 [3, 12]: > 33 µM; EC50 ([4]; EC50, FIG. 14A/14B, GAL4-EcR(DEF)): > 33 µM; EC50 ([4]; EC50, FIG. 16, GAL4-EcR (DEF)): > 33 µM; EC50 [5]: ~10 µM; EC50 [6, 11]: > 33 µM; EC50 [6, 12]: > 33 µM; EC50 [7, 11]: > 33 µM; EC50 [7, 12]: ~10 µM; EC50 ([8]; EC50, FIG. 13A/13B, GAL4-EcR(DEF) with VP16-RXR-USP chimera): > 33 µM; EC50 ([8]; EC50, FIG. 15, GAL4-EcR (DEF) / VP16-RXR-USP chimera): > 33 µM; EC50 ([9]; FIG. 14A/14B, GAL4-EcR(DEF) with VP16-RXR-USP chimera): > 33 µM; EC50 ([9]; FIG. 16, GAL4-EcR (DEF) / VP16-RXR-USP chimera): 10.5 µM

From patent US8536354B2, “Steroidal ligands and their use in gene switch modulation” (Intrexon Corporation, priority 2008, dated 2013)
